Measurements reported in the supplement of paper PMC11061612.

How the values were obtained:
Experiment in all cases: combination Emax (second highest fraction inhibited in the dose matrix, 72 h); higher = more inhibition; extreme values may be limits of the assay
PEO1 (Ovarian Carcinoma) = tested on: PEO1 (Ovarian Carcinoma)
Summary of the method: (§1)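 Cell lines in DMEM/F12 or RPMI with 10% FBS were plated in 1536-well plates, held 24 hours at 37°C, 5% CO2, then given two-drug dose matrices for 72 hours (DMSO typically 0.2%). Viability was read by CellTiter-Glo 2.0 luminescence and scaled as inhibition from 0 (vehicle wells) to 1 (blank wells). Combination Emax is the second-highest inhibition in the matrix; Bliss excess is observed combination effect minus expected EA + EB − EA·EB, EA and EB being single-agent effects.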

[1] = tested on: A2780 (Ovarian Carcinoma)
Summary of the method: as §1

769-P (Kidney Carcinoma) = tested on: 769-P (Kidney Carcinoma)
Summary of the method: as §1

[2] = tested on: MHH-ES-1 (Ewing's Sarcoma)
Summary of the method: as §1

[3] = tested on: SK-HEP-1 (Hepatocellular Carcinoma)
Summary of the method: as §1

EB2 (Burkitt's Lymphoma) = tested on: EB2 (Burkitt's Lymphoma)
Summary of the method: as §1

WM1552C (Melanoma) = tested on: WM1552C (Melanoma)
Summary of the method: as §1

[4] = tested on: LU-165 (Small Cell Lung Carcinoma)
Summary of the method: as §1

SMILES | combination Emax (PEO1 (Ovarian Carcinoma)) | combination Emax [1] | combination Emax (769-P (Kidney Carcinoma)) | combination Emax [2] | combination Emax [3] | combination Emax (EB2 (Burkitt's Lymphoma)) | combination Emax (WM1552C (Melanoma)) | combination Emax [4]
O=C(c1cc(Cc2n[nH]c(=O)c3ccccc23)ccc1F)N1CCN(C(=O)C2CC2)CC1 [Olaparib] + Cc1c2c(nn1C)CSCc1cc(n(C)n1)CSc1cc(c3ccccc3c1)OCCCc1c(C(=O)O)n(C)c3c-2c(Cl)ccc13 [AZD5991] (first compound max 10 µM, 7x7, partner max 1 µM) | 0.112 | 0.924 | 0.261 | 0.879 | 0.478 | 0.192 | 0.856 | 0.141
Cc1c2c(nn1C)CSCc1cc(n(C)n1)CSc1cc(c3ccccc3c1)OCCCc1c(C(=O)O)n(C)c3c-2c(Cl)ccc13 [AZD5991] + CS(=O)(=O)CCNCc1ccc(-c2ccc3ncnc(Nc4ccc(OCc5cccc(F)c5)c(Cl)c4)c3c2)o1 [Lapatinib] (first compound max 1 µM, 7x7, partner max 10 µM) | 0.442 | 0.933 | 0.917 | 0.58 | 0.632 | 0.283 | 0.693 | 0.225
CN(CCO)CC[C@H](CSc1ccccc1)Nc1ccc(S(=O)(=O)NC(=O)c2ccc(N3CCC([C@@H](O)c4ccccc4-c4ccc(Cl)cc4)CC3)cc2)cc1S(=O)(=O)C(F)(F)F [AZD4320] + CS(=O)(=O)CCNCc1ccc(-c2ccc3ncnc(Nc4ccc(OCc5cccc(F)c5)c(Cl)c4)c3c2)o1 [Lapatinib] (first compound max 1 µM, 7x7, partner max 10 µM) | 0.829 | 0.492 | 0.989 | 0.973 | 0.909 | 0.293 | 0.571 | 0.943
Cc1nc(-c2cn3c(n2)-c2ccc(-c4cnn(C(C)(C)C(N)=O)c4)cc2OCC3)n(C(C)C)n1 [Taselisib] + O=C(Nc1ccc2[nH]nc(-c3ccncc3)c2c1)[C@@H]1CCN(CC(=O)N2CCN(c3ccc(-c4ncccn4)cc3)CC2)C1 [SCH772984] (first compound max 10 µM, 7x7, partner max 5 µM) | 0.818 | 0.976 | 0.809 | 0.609 | 0.389 | 0.563 | 0.813 | 0.475
C=CCn1c(=O)c2cnc(Nc3ccc(N4CCN(C)CC4)cc3)nc2n1-c1cccc(C(C)(C)O)n1 [AZD1775] + CCc1c2c(nc3ccc(O)cc13)-c1cc3c(c(=O)n1C2)COC(=O)[C@]3(O)CC [SN-38] (first compound max 1 µM, partner max 0.3 µM) | 0.768 | 0.94 | 0.881 | 0.985 | 0.622 | 0.941 | 0.611 | 0.588
Cc1c2c(nn1C)CSCc1cc(n(C)n1)CSc1cc(c3ccccc3c1)OCCCc1c(C(=O)O)n(C)c3c-2c(Cl)ccc13 [AZD5991] + Nc1ccn([C@@H]2O[C@H](CO)[C@@H](O)C2(F)F)c(=O)n1 [Gemcitabine] (first compound max 1 µM, 7x7, partner max 0.3 µM) | 0.544 | 1 | 0.701 | 0.935 | 0.535 | 0.923 | 0.899 | 0.423
C[C@@H](Oc1cc(-c2cnn(C3CCNCC3)c2)cnc1N)c1c(Cl)ccc(F)c1Cl [Crizotinib] + Cn1cnc2c(F)c(Nc3ccc(Br)cc3Cl)c(C(=O)NOCCO)cc21 [Selumetinib] (first compound max 10 µM, 7x7, partner max 10 µM) | 0.297 | 0.922 | 0.875 | 0.889 | 0.387 | 0.566 | 0.864 | 0.279
C[C@@H]1COCCN1c1cc(C2([S@](C)(=N)=O)CC2)nc(-c2ccnc3[nH]ccc23)n1 [AZD6738] + C1CC(C1)(C(=O)[O-])C(=O)[O-].N.N.[Pt+2] [Carboplatin] (first compound max 10 µM, 7x7, partner max 10 µM) | 0.675 | 0.81 | 0.878 | 0.51 | 0.166 | 0.76 | 0.564 | 0.41
CC1(C)CCC(CN2CCN(c3ccc(C(=O)NS(=O)(=O)c4ccc(NCC5CCOCC5)c([N+](=O)[O-])c4)c(Oc4cnc5[nH]ccc5c4)c3)CC2)=C(c2ccc(Cl)cc2)C1 [Venetoclax] + CS(=O)(=O)CCNCc1ccc(-c2ccc3ncnc(Nc4ccc(OCc5cccc(F)c5)c(Cl)c4)c3c2)o1 [Lapatinib] (first compound max 1 µM, 7x7, partner max 10 µM) | 0.287 | 0.478 | 0.909 | 0.371 | 0.308 | 0.348 | 0.187 | 0.305
C[C@@H](Nc1cc(F)cc(F)c1)c1cc(C(=O)N(C)C)cc2c(=O)cc(N3CCOCC3)oc12 [AZD8186] + C1CN(CCC1(C(=O)N[C@@H](CCO)C2=CC=C(C=C2)Cl)N)C3=NC=NC4=C3C=CN4 [AZD5363] (first compound max 10 µM, 7x7, partner max 10 µM) | 0.351 | 0.784 | 0.338 | 0.358 | 0.159 | 0.552 | 0.339 | 0.375
